BindingDB's records for doi:10.1021/jm00151a024 (1986)
pKi: −log10 of the molar value.

Experiment: Apparent binding affinity for Alanine racemase from Pseudomonas aeruginosa

SMILES | pKi
NC(C(Cl)Cl)P(=O)(O)O (configuration not stated) [(1-Amino-2,2-dichloro-ethyl)-phosphonic acid] | 2.70
NC(CCl)P(=O)(O)O (configuration not stated) [(1-Amino-2-chloro-ethyl)-phosphonic acid] | 3.09
